Source: patent US20240239759A1, “ISOXAZOLINE COMPOSITIONS AND THEIR USE AS ANTIPARASITICS” (Intervet Inc., priority 2007, published 2024)
Where two headings read alike, the source gives them in different places.

Tests used:
[1] = test system: brown dog ticks (Rhipicephalus sanguineus) nymphs; assay: Efficacy of various isoxazolines against brown dog ticks on Guinea pigs (Example 4); format: in vivo; conditions: po
Method: In this experiment, Guinea pigs were randomly assigned to a treatment group or a negative control (untreated) group. Each group consisted of three Guinea pigs. On Day Zero, each Guinea pig was infested with 100 vital nymphs of R. sanguineus. On Day 1, the Guinea pigs in the treatment groups were orally administered 10 mg/kg bodyweight of various isoxazolines dissolved in 7% DMF-premix and 93% purified water (aqua ad injectabilia). Engorged, detached nymphs were counted (eN) from Day 4 to […] on engorged nymphs (%) (eN control group—EeN treatment group)×100 eN control group
In addition, collected ticks were assessed for molting into the next stage.

[2] = test system: cat fleas (Ctenocephalides felis); assay: Efficacy of various isoxazolines against cat fleas on mice (Example 3); format: in vivo; conditions: Ctenocephalides felis, po, read-out: Flea inhibition relative to negative control
Method: In this experiment, mice were randomly assigned to a treatment group or a negative control (untreated) group. Each group consisted of three mice. The mice in the treatment groups were orally administered 20 mg/kg bodyweight of various isoxazolines dissolved in 7% DMF-premix and 93% purified water (aqua ad injectabilia). The application volume of these treatments was 0.01 mL/g bodyweight. One hour after treatment, each mouse was sedated and generally infested (whole body) with 30 vital, adult fleas (C. felis). To achieve this, the sedated mice were placed into an infestation-jar, and the fleas were placed directly onto the fur. After approximately 30 minutes of feeding, fleas were recovered from the mice. Assessments for inhibition and mortality were conducted 1 hr, 24 hr, and 48 hr after each infestation. The efficacy was calculated as the percentage of inhibited fleas in the treatment groups relative to the negative control group.

[3] = test system: cat fleas (Ctenocephalides felis); assay: Adult fleas fed on artificial membranes with spiked blood (Example 1); conditions: 48 hr continuous feeding
Method: Adult fleas (20-30) were fed on artificial membranes with blood spiked with Compound 10-1, Compound 11-1, or a positive control (fipronil) at a concentration of 100, 10, or 1 ppm. Flea efficacy was assessed after 48 hr of continuous feeding by comparing the number of killed and damaged fleas with the number of fed fleas. Flea efficacy was 100% for Compound 10-1, Compound 11-1, and fipronil at 100, 10, and 1 ppm.

[4] = Guinea pigs, oral 10 mg/kg on Day 1, infested Day Zero, engorged detached nymphs counted from Day 4, read-out: Inhibition (efficacy on engorged nymphs)
[5] = 24 h, mice, oral 20 mg/kg, infested 1 hr after treatment, 24 hr after infestation
[6] = 48 h, mice, oral 20 mg/kg, infested 1 hr after treatment, 48 hr after infestation
[7] = 1 h, mice, oral 20 mg/kg, infested 1 hr after treatment, 1 hr after infestation

## COC(=O)NC(=O)c1ccc(C2=NOC(c3cc(Br)cc(Br)c3)(C(F)(F)F)C2)cc1C (stereo not shown) [Compound 5-14]
[1]; read-out: Inhibition (efficacy on engorged nymphs)
  pest or weed control at 10 mg/kg: 22.4%
[2]; 1 h
  pest or weed control at 20 mg/kg: 4.4%
[2]; 24 h
  pest or weed control at 20 mg/kg: 13.3%
[2]; 48 h
  pest or weed control at 20 mg/kg: 22.2%

## CO/N=C\NC(=O)c1ccc(C2=NOC(c3cc(Cl)cc(Cl)c3)(C(F)(F)F)C2)cc1C (stereo not shown) [Compound 5-43]
[1]; [4]
  pest or weed control at 10 mg/kg: 0%
[2]; [5]
  pest or weed control at 20 mg/kg: 92.2%
[2]; [6]
  pest or weed control at 20 mg/kg: 92.2%

## CCON=CNC(=O)c1ccc(C2=NOC(c3cc(Cl)cc(Cl)c3)(C(F)(F)F)C2)cc1I (stereo not shown) [Compound 5-44]
[1]; [4]
  pest or weed control at 10 mg/kg: 15.6%
[2]; [7]
  pest or weed control at 20 mg/kg: 0%
[2]; [5]
  pest or weed control at 20 mg/kg: 75.6%
[2]; [6]
  pest or weed control at 20 mg/kg: 78.9%

## Cc1cc(C2=NOC(c3cc(Cl)cc(Cl)c3)(C(F)(F)F)C2)ccc1C(=O)Nc1ncc(C#N)cn1 (stereo not shown) [Compound 5-45]
[1]; [4]
  pest or weed control at 10 mg/kg: 0%
[2]; [7]
  pest or weed control at 20 mg/kg: 0%
[2]; [5]
  pest or weed control at 20 mg/kg: 92.2%
[2]; [6]
  pest or weed control at 20 mg/kg: 93.3%

## COCN(C(=O)c1ccc(C2=NOC(c3cc(Cl)cc(Cl)c3)(C(F)(F)F)C2)cc1C)c1ncc(C#N)cn1 (stereo not shown) [Compound 5-46]
[1]; [4]
  pest or weed control at 10 mg/kg: 26.4%
[2]; [7]
  pest or weed control at 20 mg/kg: 0%
[2]; [5]
  pest or weed control at 20 mg/kg: 85.6%
[2]; [6]
  pest or weed control at 20 mg/kg: 86.7%

## COC(=O)N(C(=O)c1ccc(C2=NOC(c3cc(Cl)cc(Cl)c3)(C(F)(F)F)C2)cc1C)N(C)c1ccccc1 (stereo not shown) [Compound 5-47]
[1]; [4]
  pest or weed control at 10 mg/kg: 58.5%
[2]; [7]
  pest or weed control at 20 mg/kg: 0%
[2]; [5]
  pest or weed control at 20 mg/kg: 95.6%
[2]; [6]
  pest or weed control at 20 mg/kg: 96.7%

## CON=CNC(=O)c1ccc(C2=NOC(c3cc(Cl)cc(Cl)c3)(C(F)(F)F)C2)cc1Cl (stereo not shown) [Compound 5-51]
[1]; [4]
  pest or weed control at 10 mg/kg: 52.1%
[2]; [7]
  pest or weed control at 20 mg/kg: 0%
[2]; [5]
  pest or weed control at 20 mg/kg: 97.8%
[2]; [6]
  pest or weed control at 20 mg/kg: 97.8%

## Cc1cc(C2=NOC(c3cc(Cl)cc(Cl)c3)(C(F)(F)F)C2)ccc1C(=O)NN(C)c1ccccc1 (stereo not shown) [Compound 5-52]
[1]; [4]
  pest or weed control at 10 mg/kg: 93.4%
[2]; [7]
  pest or weed control at 20 mg/kg: 0%
[2]; [5]
  pest or weed control at 20 mg/kg: 96.7%
[2]; [6]
  pest or weed control at 20 mg/kg: 96.7%

## CCOCN(C(=O)OC)C(=O)c1ccc(C2=NOC(c3cc(Cl)cc(Cl)c3)(C(F)(F)F)C2)cc1I (stereo not shown) [Compound 5-56]
[1]; [4]
  pest or weed control at 10 mg/kg: 76%
[2]; [7]
  pest or weed control at 20 mg/kg: 0%
[2]; [5]
  pest or weed control at 20 mg/kg: 87.8%
[2]; [6]
  pest or weed control at 20 mg/kg: 88.9%

## CCC(=O)N(Cc1cscn1)C(=O)c1ccc(C2=NOC(c3cc(Cl)cc(Cl)c3)(C(F)(F)F)C2)cc1C (stereo not shown) [Compound 5-58]
[1]; [4]
  pest or weed control at 10 mg/kg: 100%
[2]; [7]
  pest or weed control at 20 mg/kg: 11.1%
[2]; [5]
  pest or weed control at 20 mg/kg: 100%
[2]; [6]
  pest or weed control at 20 mg/kg: 100%

## NC(=O)NC(=O)c1ccc(C2=NOC(c3cc(Cl)cc(Cl)c3)(C(F)(F)F)C2)cc1I (stereo not shown) [Compound 5-59]
[1]; [4]
  pest or weed control at 10 mg/kg: 96.3%
[2]; [7]
  pest or weed control at 20 mg/kg: 18.8%
[2]; [5]
  pest or weed control at 20 mg/kg: 94.4%
[2]; [6]
  pest or weed control at 20 mg/kg: 95.6%

## CC(=O)N(C(=O)c1ccc(C2=NOC(c3cc(Cl)cc(Cl)c3)(C(F)(F)F)C2)cc1C)c1ncc(Cl)cn1 (stereo not shown) [Compound 5-60]
[1]; [4]
  pest or weed control at 10 mg/kg: 78.9%
[2]; [7]
  pest or weed control at 20 mg/kg: 26.6%
[2]; [5]
  pest or weed control at 20 mg/kg: 96.7%
[2]; [6]
  pest or weed control at 20 mg/kg: 96.7%

## CO/N=C\NC(=O)c1ccc(C2=NOC(c3cc(Cl)cc(Cl)c3)(C(F)(F)F)C2)cc1I (stereo not shown) [Compound 5-62]
[1]; [4]
  pest or weed control at 10 mg/kg: 88.5%
[2]; [7]
  pest or weed control at 20 mg/kg: 10%
[2]; [5]
  pest or weed control at 20 mg/kg: 81.1%
[2]; [6]
  pest or weed control at 20 mg/kg: 81.1%

## COCN(C(=O)OC)C(=O)c1ccc(C2=NOC(c3cc(Cl)cc(Cl)c3)(C(F)(F)F)C2)cc1C (stereo not shown) [Compound 5-63]
[1]; [4]
  pest or weed control at 10 mg/kg: 85.3%
[2]; [7]
  pest or weed control at 20 mg/kg: 30%
[2]; [5]
  pest or weed control at 20 mg/kg: 95.6%
[2]; [6]
  pest or weed control at 20 mg/kg: 98.9%

## CCOCN(C(=O)OC)C(=O)c1ccc(C2=NOC(c3cc(Cl)cc(Cl)c3)(C(F)(F)F)C2)cc1C (stereo not shown) [Compound 5-65]
[1]; [4]
  pest or weed control at 10 mg/kg: 79.2%
[2]; [7]
  pest or weed control at 20 mg/kg: 58.8%
[2]; [5]
  pest or weed control at 20 mg/kg: 92.2%
[2]; [6]
  pest or weed control at 20 mg/kg: 93.3%

## Cc1cc(C2=NOC(c3cc(Cl)cc(Cl)c3)(C(F)(F)F)C2)ccc1C(=O)NCc1cscn1 (stereo not shown) [Compound 5-66]
[1]; [4]
  pest or weed control at 10 mg/kg: 100%
[2]; [7]
  pest or weed control at 20 mg/kg: 77.8%
[2]; [5]
  pest or weed control at 20 mg/kg: 100%
[2]; [6]
  pest or weed control at 20 mg/kg: 100%

## Cc1cc(C2=NOC(c3cc(Cl)cc(Cl)c3)(C(F)(F)F)C2)ccc1C(=O)N[C@@H]1CCOC1 (stereo partly shown) [Compound 5-68]
[1]; [4]
  pest or weed control at 10 mg/kg: 100%
[2]; [7]
  pest or weed control at 20 mg/kg: 75.5%
[2]; [5]
  pest or weed control at 20 mg/kg: 91.1%
[2]; [6]
  pest or weed control at 20 mg/kg: 95.6%

## CO/N=C\NC(=O)c1ccc(C2=NOC(c3cc(Cl)cc(Cl)c3)(C(F)(F)F)C2)cc1C (stereo not shown) [Compound 10-1, (Z)-4-[5-(3,5-dichlorophenyl)-5-trifluoromethyl-4,5-dihydroisoxazol-3-yl]-N-[(methoxyimino)methyl]-2-methylbenzamide]
[3]; blood spiked at 1 ppm
  Flea efficacy: 100%
[3]; blood spiked at 10 ppm
  Flea efficacy: 100%
[3]; blood spiked at 100 ppm
  Flea efficacy: 100%

## Cc1cc(C2=NOC(c3cc(Cl)cc(Cl)c3)(C(F)(F)F)C2)ccc1C(=S)NCc1cscn1 (stereo not shown) [Compound X-1]
[2]; [7]
  pest or weed control at 20 mg/kg: 4.3%
[2]; [5]
  pest or weed control at 20 mg/kg: 100%
[2]; [6]
  pest or weed control at 20 mg/kg: 100%
